Patent US20230028463A1, “METHOD FOR PRODUCING ACTINIC RAY-SENSITIVE OR RADIATION-SENSITIVE RESIN COMPOSITION, PATTERN FORMATION METHOD, AND METHOD FOR MANUFACTURING ELECTRONIC DEVICE” (FUJIFILM Corporation, priority 2020, published 2023)

Assay: Solubility of photoacid generator in 100 g of solvent at 25° C.
Assay type: physicochemical
Details: in 100 g of PGME at 25° C.
Description: <Solubility (g) of Photoacid Generator in 100 g of Solvent at 25° C.>
“A”: The solubility is more than 3 g
“B”: The solubility is 0.5 to 3 g
“C”: The solubility is less than 0.5 g

c1ccc([S+]2CCCC2)cc1 [B-4]
Solubility (25° C.) of photoacid generator in solvent: A (The solubility is more than 3 g)
